Patent US20150141435A1, “2-PYRIDONE ANTIMICROBIAL COMPOSITIONS” (Emergent BioSolutions, priority 2010, published 2015)
Structures can show the parent of a compound that is named as a salt.

Legend:
Type in all cases: cell-based
[1] = system: S. aureus ATCC 25923; assay: MIC, CLSI broth microdilution (Table 1); conditions: Staphylococcus aureus, ATCC25923; Gram positive; MHB, 37° C., 16-20 hours; read-out: MIC S. aureus ATCC 25923
[2] = system: S. aureus ATCC 43300 (MRSA, FQ-S); assay: MIC, CLSI broth microdilution (Table 1); conditions: Staphylococcus aureus; Gram positive; MHB, 37° C., 16-20 hours; read-out: MIC S. aureus ATCC 43300 (MRSA, FQ-S)
[3] = system: S. aureus BAA-1720 (MRSA, FQ-R); assay: MIC, CLSI broth microdilution (Table 1); conditions: Staphylococcus aureus; Gram positive; MHB, 37° C., 16-20 hours; read-out: MIC S. aureus BAA-1720 (MRSA, FQ-R)
[4] = system: E. faecium ATCC 19434; assay: MIC, CLSI broth microdilution (Table 1); conditions: Enterococcus faecium, ATCC19434; Gram positive; MHB, 37° C., 16-20 hours; read-out: MIC E. faecium ATCC 19434
[5] = system: E. faecalis ATCC 29212; assay: MIC, CLSI broth microdilution (Table 1); conditions: Enterococcus faecalis, ATCC29212; Gram positive; MHB, 37° C., 16-20 hours; read-out: MIC E. faecalis ATCC 29212
[6] = system: S. pneumonia ATCC 49619; assay: MIC, CLSI broth microdilution (Table 1); conditions: Streptococcus pneumoniae, ATCC49619; Gram positive; MHB, 37° C., 16-20 hours; read-out: MIC S. pneumonia ATCC 49619
[7] = system: E. coli ATCC 25922; assay: MIC, CLSI broth microdilution (Table 2); conditions: Escherichia coli, ATCC25922; Gram negative; MHB, 37° C., 16-20 hours; read-out: MIC E. coli ATCC 25922
[8] = system: A. baumannii ATCC 19606; assay: MIC, CLSI broth microdilution (Table 2); conditions: Acinetobacter baumannii, ATCC19606; Gram negative; MHB, 37° C., 16-20 hours; read-out: MIC A. baumannii B. ATCC 19606
[9] = system: P. aeruginosa ATCC 27853; assay: MIC, CLSI broth microdilution (Table 2); conditions: Pseudomonas aeruginosa, ATCC27853; Gram negative; MHB, 37° C., 16-20 hours; read-out: MIC P. aeruginosa ATCC 27853
[10] = system: K. pneumoniae ATCC 33495; assay: MIC, CLSI broth microdilution (Table 2); conditions: Klebsiella pneumoniae, ATCC33495; Gram negative; MHB, 37° C., 16-20 hours; read-out: MIC K. pneumoniae ATCC 33495
[11] = system: H. influenzae ATCC 49247; assay: MIC, CLSI broth microdilution (Table 2); conditions: Haemophilus influenzae, ATCC49247; Gram negative; MHB, 37° C., 16-20 hours; read-out: MIC H. influenzae ATCC 49247
[12] = system: S. maltophilia ATCC 17677; assay: MIC, CLSI broth microdilution (Table 2); conditions: Stenotrophomonas maltophilia, ATCC17677; Gram negative; MHB, 37° C., 16-20 hours; read-out: MIC S. maltophilia ATCC 17677

Compound | MIC [1] | MIC [2] | MIC [3] | MIC [4] | MIC [5] | MIC [6] | MIC [7] | MIC [8] | MIC [9] | MIC [10] | MIC [11] | MIC [12]
Cc1c(-c2ccc3[nH]ccc3c2)ccn2c(=O)c(C(=O)O)cc(C3CC3)c12 [Example 22 K salt, 1-cyclopropyl-8-(1H-indol-5-yl)-9-methyl-4-oxo-4H-quinolizine-3-carboxylic acid] | 0.008 µg/mL | 0.016 µg/mL | 0.5 µg/mL | 4 µg/mL | 0.032 µg/mL | 0.125 µg/mL | 0.125 µg/mL | 0.25 µg/mL | 4 µg/mL | 0.25 µg/mL | 0.016 µg/mL | 0.5 µg/mL
Cc1c(-c2cc(Cl)c(N)c(Cl)c2)ccn2c(=O)c(C(=O)O)cc(C3CC3)c12 [Example 29 K salt, 1-cyclopropyl-8-(4-amino-3,5-dichloro-phenyl)-9-methyl-4-oxo-4H-quinolizine-3-carboxylic acid] | ≤ 0.004 µg/mL | 0.008 µg/mL | 0.125 µg/mL | 0.5 µg/mL | 0.008 to 0.016 µg/mL | 0.064 µg/mL | 0.25 µg/mL | 0.25 µg/mL | 4 µg/mL | 0.5 to 1 µg/mL | 0.008 to 0.016 µg/mL | 0.25 µg/mL
Cc1c(-c2ccc(C(=O)O)cc2)ccn2c(=O)c(C(=O)O)cc(C3CC3)c12 [Example 37 K salt, 8-(4-carboxy-phenyl)-1-cyclopropyl-9-methyl-4-oxo-4H-quinolizine-3-carboxylic acid] | 2 µg/mL | 0.125 µg/mL | 8 µg/mL | > 8 µg/mL | 0.5 µg/mL | 1 µg/mL | > 8 µg/mL | > 8 µg/mL | > 8 µg/mL | > 8 µg/mL | 0.064 µg/mL | > 8 µg/mL
Cc1cc(-c2ccn3c(=O)c(C(=O)O)cc(C4CC4)c3c2C)c(Cl)cc1N [Example 30 K salt, 1-cyclopropyl-8-(4-amino-2-chloro-5-methyl-phenyl)-9-methyl-4-oxo-4H-quinolizine-3-carboxylic acid] | 0.064 µg/mL | 0.032 µg/mL | 1 µg/mL | 2 µg/mL | 0.064 µg/mL | 0.25 µg/mL | 1 µg/mL | 1 to 2 µg/mL | > 8 µg/mL | 2 to 4 µg/mL | 0.064 µg/mL | 4 µg/mL
Cc1c(N2CCC[C@H](N)C2)ccn2c(=O)c(C(=O)O)cc(C3CC3)c12 [Example 35 K salt, 8-[(3S)-3-amino-1-piperidyl]-1-cyclopropyl-9-methyl-4-oxo-quinolizine-3-carboxylic acid] | 0.032 µg/mL | 0.032 µg/mL | 0.5 µg/mL | 2 µg/mL | 0.125 µg/mL | 0.032 µg/mL | 0.032 µg/mL | 0.25 µg/mL | 0.5 µg/mL | 0.125 to 0.5 µg/mL | 0.008 to 0.016 µg/mL | 0.125 µg/mL
